Columns and labels:
[1] = cited from earlier work
[2] = Permeability and efflux ratio of saquinavir across Caco-2 cell monolayers; format: in vitro ADME; details: human, pH 7.4, Caco-2 monolayer
Procedure: Caco-2 cells (ATCC, Manassas, Va.) were kindly provided by Dr. Gunaje Jayarama (Department of Pharmaceutical Sciences, South Dakota State University, Brookings, S. Dak.) at passage #4. Cells were seeded at 1×10^6 cells onto […]®polyester filter membranes (pore size 0.4 um, growth area 4.67 cm^2) in 6 welled sterile plates ([…]®, Corning Costar Corp., Cambridge, Mass.). The cells were grown in DMEM (4.5 g/L glucose) medium supplemented with 20% FBS, 1% non-essential amino acids, I % L-glutamine, streptomycin (100 μg/ml) and penicillin (100 IU/ml). The cultures were maintained in an atmosphere of 5% CO2 and 95% air, and 95% relative humidity at 37° C. (CO2 incubator, Galaxy 170S). The growth medium was changed every day in the first two weeks followed by three times a week until time of use. When reaching confluency, cells were trypsinized and passage numbers 25-35 were used in the experiments. The cells were allowed to differentiate in the […]® filter membrane during 3 weeks in complete growth medium.
The permeability of saquinavir and saquinavir loaded ZLF nanoparticles were studied across Caco-2 cell monolayers in an absorptive direction apical to basolateral (AP-BL) or secretory direction basolateral to apical (BL-AP). Before the permeability experiments, the cell monolayers were rinsed twice with HBSS, pH 7.4, and equilibrated under experimental conditions for 20 min. Then, the apical fluid was replaced by 1.5 ml of experimental solution. Transepithelial electrical resistance (TEER) was measured using an EVOM meter (World Precision Instruments, Inc., Sarasota, Fla.) to ensure monolayer confluence and integrity. TEER was calculated as follows: […]
Where R(Ω) is the measured resistance and A is the surface area (cm^2). […] Results are expressed as apparent permeability coefficient (Papp), calculated according to: […]
Saquinavir content after extraction was analyzed in the samples using the HPLC as recited herein. […]
The ratio of effective permeability for saquinavir or efflux ratio was calculated as follows: […]

[3] = background statement; cited from earlier work

SMILES | Log P [1] | solubility in water [1] | efflux ratio at 3 h, 20 μM ([2]; Papp B-A/Papp A-B) | Papp A→B at 3 h, 20 μM ([2]; apical to basolateral, free saquinavir at 20 μM) [×10⁻⁶ cm/s] | Papp B→A at 3 h, 20 μM ([2]; basolateral to apical, free saquinavir at 20 μM) [×10⁻⁶ cm/s] | bioavailability [3]
CC1=C(/C=C/C(C)=C/C=C/C(C)=C/CO)C(C)(C)CCC1 [Retinol] | 6.2 | practically insoluble in water |  |  |  | 
CC(C)(C)NC(=O)[C@@H]1C[C@@H]2CCCC[C@@H]2CN1C[C@@H](O)[C@H](Cc1ccccc1)NC(=O)[C@H](CC(N)=O)NC(=O)c1ccc2ccccc2n1 [Saquinavir] |  |  | 16.7 | 0.85 ± 0.21 | 14.2 ± 5.3 | 0.7-4%
